Tests used:
ICH mice [1] = assay: Neurological function assessment (mNSS, corner-turning test, rotarod test) in ICH mouse model; assay type: in vivo; details: vs vehicle
Source text: (§1) The intracerebral hemorrhage (ICH) model in mice was used to illustrate the protective benefits of the compounds of this disclosure, and FIG. 1 depicts the procedure in preparing this model. ICH was induced in C57 B/L6 male mice by the injection of an autologous blood or collagenase as previously described (Lauer et al., Circulation 124: 1654-1662 (2011); Rynkowski et al., Nat. Protoc. 3:122-128 (2008)). Mice were anesthetized using isoflurane inhalation and fixed on a stereotactic frame. A burr hole was drilled on the right side of the skull at 2.3 mm lateral to the midline and 0.5 mm anterior to the bregma. For the autologous blood model, 30 μl of non-heparinized blood was withdrawn from the angular vein. The first 5 μl blood was injected at a depth of 3 mm beneath the hole, and the rest 25 μl blood were injected at 3.7 mm beneath the hole with a rate of 1 μl/min. In the collagenase model, 0.038 U of the bacterial collagenase (in 0.5 μl saline) was infused to the striatum (0.5 mm anterior, 2.3 mm right lateral, and 3.5 mm deep relative to bregma) at a speed of 0.5 μl/min. Mice on the sham control were injected with an equal volume of saline. Throughout the procedure, the body temperature was maintained at 37° C. with a homeothermic blanket. […]
The neurological function assessment was performed by investigators who were blinded to the two treatment groups. The modified Neurological Severity Score (mNSS), corner-turning test, and rotarod test were conducted to evaluate the neuro-deficits of the ICH mice at defined time points as described (Li et al., Proc. Nat. Acad. Sci. USA 114:E396-E405 (2017)). mice were evaluated for motor function (muscle and abnormal movement), sensory (visual, tactile, and proprioceptive), and reflexes (pinna, corneal, startle reflexes). […] The corner-turning test was used to evaluate the sensorimotor damage to quantify the turning preference (right or left) upon approaching a 30° corner. […] The percentage of ipsilateral turns was then calculated. […] The duration of each mouse on the rod was recorded. […]

ICH mice [2] = assay: Brain infiltrating neutrophils by flow cytometry in ICH mouse model; assay type: in vivo; details: vs vehicle
Source text: as §1, with “μl/min.” for “μl/min. Mice on the sham control were injected with an equal volume of saline. Throughout the procedure, the body temperature was maintained at 37° C. with a homeothermic blanket.”
Single cell suspension of brain tissues was prepared and stained with fluorochrome-conjugated antibodies. […] Flow cytometric measurements were performed on a FACS Aria III (BD Bioscience) and analyzed using Flowjo 7.6 software (Informer Technologies, Ashland, OR, USA).

[3] = day 1 and day 3 after ICH, 5 mg/kg i.p.

Cc1ccc(O)c(-c2[nH]nc3c2C(c2ccc(C(F)(F)F)cc2)N(C2CCOCC2)C3=O)c1 (racemic) [Compound 1, Rac-3-(2-hydroxy-5-methylphenyl)-5-(tetrahydro-2H-pyran-4-yl)-4-(4-(trifluoromethyl)phenyl)-4,5-dihydropyrrolo[3,4-c]pyrazol-6(2H)-one]
neurological outcomes (ICH mice [1]; 5 mg/kg/daily i.p., first dose 1 h after ICH onset): improved | locomotor function scores (corner turn test, rotarod test) (ICH mice [1]; [3]): improved | modified neurological symptom score (mNSS) (ICH mice [1]; [3]): improved | reduction of total number of brain-infiltrated neutrophils (ICH mice [2]; Day 3, 5 mg/kg i.p.): 54% | reduction of total number of brain-infiltrated neutrophils (ICH mice [2]; Day-1, 5 mg/kg i.p.): 47%
